Results as given in BindingDB's records for doi:10.1021/jm9707838 (Smithkline Beecham, 1998).

How the values were obtained:
[1] = Inhibition of V-ATPase-driven proton transport in membrane vesicles derived from chicken osteoclasts (cOc).
[2] = Inhibition of V-ATPase-driven proton transport in membrane vesicles derived from bovine chromaffin granules (bCG).
[3] = Inhibition of V-ATPase-driven proton transport in membrane vesicles derived from bovine chromaffin granules (bCG)
[4] = Inhibition of V-ATPase-driven proton transport in membrane vesicles derived from chicken osteoclasts (cOc)

| Compound | IC50 [1] | IC50 [2] | IC50 [3] | IC50 [4] |
| --- | --- | --- | --- | --- |
| COC(=O)[C@@H](C)[C@H](O)[C@H](C)[C@H]1OC(=O)/C(OC)=C/C(C)=C/[C@@H](C)C(=O)[C@@H](C)C/C(C)=C/C=C/[C@@H]1OC [(2S,3R,4S)-4-((4E,6E,12E,14Z)-(2R,3S,9S,11R)-3,15-Dimethoxy-7,9,11,13-tetramethyl-10,16-dioxo-oxacyclohexadeca-4,6,12,14-tetraen-2-yl)-3-hydroxy-2-methyl-pentanoic acid methyl ester] | > 10 µM | > 10 µM |  |  |
| CO/C1=C\C(C)=C\[C@@H](C)C(=O)[C@@H](C)C/C(C)=C/C=C/[C@H](OC)[C@@H]([C@@H](C)[C@@H](O)[C@H](C)[C@@]2(O)C[C@@H](C(=O)Oc3ccccc3)[C@H](C)[C@@H](C(C)C)O2)OC1=O [2-[3-(3,15-Dimethoxy-7,9,11,13-tetramethyl-10,16-dioxo-oxacyclohexadeca-4,6,12,14-tetraen-2-yl)-2-hydroxy-1-methyl-butyl]-2-hydroxy-6-isopropyl-5-methyl-tetrahydro-pyran-4-carboxylic acid phenyl ester] |  |  | > 10 µM | > 10 µM |
| CO/C1=C\C(C)=C\[C@@H](C)[C@@H](O)[C@@H](C)C/C(C)=C/C=C/[C@H](OC)[C@@H]([C@@H](C)[C@@H](O)[C@H](C)C(=O)O)OC1=O [(2S,3R,4S)-3-Hydroxy-4-((4E,6E,12E,14Z)-(2R,3S,9S,10S,11R)-10-hydroxy-3,15-dimethoxy-7,9,11,13-tetramethyl-16-oxo-oxacyclohexadeca-4,6,12,14-tetraen-2-yl)-2-methyl-pentanoic acid] | > 10 µM | > 10 µM |  |  |
| CO/C1=C\C(C)=C\[C@@H](C)C(=O)[C@@H](C)C/C(C)=C/C=C/[C@H](OC)[C@@H]([C@@H](C)[C@@H](O)[C@H](C)C(=O)O)OC1=O [(2S,3R,4S)-4-((4E,6E,12E,14Z)-(2R,3S,9S,11R)-3,15-Dimethoxy-7,9,11,13-tetramethyl-10,16-dioxo-oxacyclohexadeca-4,6,12,14-tetraen-2-yl)-3-hydroxy-2-methyl-pentanoic acid] | > 10 µM | > 10 µM |  |  |
